According to the NIST ThermoML archive (doi:10.1021/je400122k):
Numbers after ± are expanded uncertainties.

Settings: Liquid; for speed of sound: Pulse-echo method; for mass density: Vibrating tube method

CCCCCCCCCCCCCC(=O)OCC [ethyl tetradecanoate]
Settings	mass density [kg/m3]	speed of sound [m/s]
293.15 K, 100 kPa	–	1360.6 ± 5.6
293.15 K, 101.3 kPa	861 ± 1	–
293.15 K, 10000 kPa	867.5 ± 1	1408 ± 5.8
293.15 K, 20000 kPa	873.2 ± 1.1	1453.3 ± 6
293.15 K, 30000 kPa	878.7 ± 1.1	1494.5 ± 6.1
293.15 K, 40000 kPa	883.8 ± 1.1	1533.5 ± 6.3
293.15 K, 50000 kPa	888.7 ± 1.1	1568.2 ± 6.4
293.15 K, 60000 kPa	893.6 ± 1.1	–
303.15 K, 100 kPa	–	1321.8 ± 5.5
303.15 K, 101.3 kPa	853.3 ± 1	–
303.15 K, 10000 kPa	860.2 ± 1	1370.9 ± 5.7
303.15 K, 20000 kPa	866.2 ± 1.1	1416.8 ± 5.8
303.15 K, 30000 kPa	871.9 ± 1.1	1460.6 ± 6
303.15 K, 40000 kPa	877.3 ± 1.1	1500.8 ± 6.2
303.15 K, 50000 kPa	882.2 ± 1.1	1539.9 ± 6.3
303.15 K, 60000 kPa	887 ± 1.1	–
303.15 K, 70000 kPa	891.7 ± 1.1	–
303.15 K, 80000 kPa	896 ± 1.1	–
303.15 K, 90000 kPa	900.3 ± 1.1	–
303.15 K, 100000 kPa	904.4 ± 1.1	–
313.15 K, 101.3 kPa	845.6 ± 1	–
313.15 K, 10000 kPa	852.7 ± 1	–
313.15 K, 20000 kPa	859 ± 1.1	–
313.15 K, 30000 kPa	864.9 ± 1.1	–
313.15 K, 40000 kPa	870.5 ± 1.1	–
313.15 K, 50000 kPa	875.7 ± 1.1	–
313.15 K, 60000 kPa	880.8 ± 1.1	–
313.15 K, 70000 kPa	885.5 ± 1.1	–
313.15 K, 80000 kPa	890.8 ± 1.1	–
313.15 K, 90000 kPa	894.9 ± 1.1	–
313.15 K, 100000 kPa	899.1 ± 1.2	–
323.15 K, 100 kPa	–	1251.8 ± 5.2
323.15 K, 101.3 kPa	838.5 ± 1	–
323.15 K, 10000 kPa	845.4 ± 1	1304.5 ± 5.4
323.15 K, 20000 kPa	852 ± 1.1	1353.4 ± 5.6
323.15 K, 30000 kPa	858.2 ± 1.1	1398.6 ± 5.8
323.15 K, 40000 kPa	863.9 ± 1.1	1441.1 ± 5.9
323.15 K, 50000 kPa	869.2 ± 1.1	1482.4 ± 6.1
323.15 K, 60000 kPa	874.7 ± 1.1	1519.7 ± 6.2
323.15 K, 70000 kPa	879.8 ± 1.1	1555.8 ± 6.4
323.15 K, 80000 kPa	884.5 ± 1.1	1590.8 ± 6.5
323.15 K, 90000 kPa	888.9 ± 1.2	1624.6 ± 6.6
323.15 K, 100000 kPa	893.1 ± 1.2	1655.7 ± 6.8
333.15 K, 101.3 kPa	830.6 ± 1	–
333.15 K, 10000 kPa	838 ± 1	–
333.15 K, 20000 kPa	844.9 ± 1.1	–
333.15 K, 30000 kPa	851.3 ± 1.1	–
333.15 K, 40000 kPa	857.2 ± 1.1	–
333.15 K, 50000 kPa	862.9 ± 1.1	–
333.15 K, 60000 kPa	868.2 ± 1.1	–
333.15 K, 70000 kPa	874 ± 1.1	–
333.15 K, 80000 kPa	878 ± 1.2	–
333.15 K, 90000 kPa	883.4 ± 1.2	–
333.15 K, 100000 kPa	888 ± 1.2	–
343.15 K, 100 kPa	–	1184.7 ± 4.9
343.15 K, 101.3 kPa	823.2 ± 1	–
343.15 K, 10000 kPa	831.1 ± 1	1241.3 ± 5.1
343.15 K, 20000 kPa	838.6 ± 1.1	1293 ± 5.3
343.15 K, 30000 kPa	845.2 ± 1.1	1341.9 ± 5.5
343.15 K, 40000 kPa	851.3 ± 1.1	1386.7 ± 5.7
343.15 K, 50000 kPa	857.1 ± 1.1	1428.8 ± 5.9
343.15 K, 60000 kPa	862.5 ± 1.1	1468.1 ± 6
343.15 K, 70000 kPa	867.7 ± 1.1	1506.4 ± 6.2
343.15 K, 80000 kPa	872.8 ± 1.2	1541.9 ± 6.3
343.15 K, 90000 kPa	877.5 ± 1.2	1576.2 ± 6.4
343.15 K, 100000 kPa	882.1 ± 1.2	1609.1 ± 6.6
353.15 K, 101.3 kPa	815.6 ± 1	–
353.15 K, 10000 kPa	823.9 ± 1	–
353.15 K, 20000 kPa	831.8 ± 1.1	–
353.15 K, 30000 kPa	838.7 ± 1.1	–
353.15 K, 40000 kPa	845 ± 1.1	–
353.15 K, 50000 kPa	850.8 ± 1.1	–
353.15 K, 60000 kPa	856.4 ± 1.1	–
353.15 K, 70000 kPa	861.8 ± 1.2	–
353.15 K, 80000 kPa	866.9 ± 1.2	–
353.15 K, 90000 kPa	871.8 ± 1.2	–
353.15 K, 100000 kPa	876.4 ± 1.2	–
363.15 K, 100 kPa	–	1120 ± 4.7
363.15 K, 101.3 kPa	808.4 ± 1	–
363.15 K, 10000 kPa	816.6 ± 1	1181.8 ± 4.9
363.15 K, 20000 kPa	824.6 ± 1.1	1236.4 ± 5.1
363.15 K, 30000 kPa	831.8 ± 1.1	1287.1 ± 5.3
363.15 K, 40000 kPa	838.6 ± 1.1	1334.2 ± 5.5
363.15 K, 50000 kPa	845 ± 1.1	1377.5 ± 5.7
363.15 K, 60000 kPa	850.6 ± 1.1	1418.8 ± 5.8
363.15 K, 70000 kPa	856.1 ± 1.2	1457.6 ± 6
363.15 K, 80000 kPa	861.3 ± 1.2	1495.5 ± 6.1
363.15 K, 90000 kPa	866.3 ± 1.2	1531 ± 6.3
363.15 K, 100000 kPa	871.1 ± 1.2	1564.6 ± 6.4
373.15 K, 101.3 kPa	800.1 ± 1	–
373.15 K, 10000 kPa	809.9 ± 1.1	–
373.15 K, 20000 kPa	817.9 ± 1.1	–
373.15 K, 30000 kPa	825.5 ± 1.1	–
373.15 K, 40000 kPa	832.4 ± 1.1	–
373.15 K, 50000 kPa	838.8 ± 1.1	–
373.15 K, 60000 kPa	844.9 ± 1.1	–
373.15 K, 70000 kPa	850.6 ± 1.2	–
373.15 K, 80000 kPa	856.2 ± 1.2	–
373.15 K, 90000 kPa	861.3 ± 1.2	–
373.15 K, 100000 kPa	866.1 ± 1.2	–
383.15 K, 100 kPa	–	1056.9 ± 4.4
383.15 K, 101.3 kPa	792.1 ± 1	–
383.15 K, 10000 kPa	802.1 ± 1.1	1122.3 ± 4.7
383.15 K, 20000 kPa	810.7 ± 1.1	1181.7 ± 4.9
383.15 K, 30000 kPa	818.5 ± 1.1	1235.6 ± 5.1
383.15 K, 40000 kPa	825.9 ± 1.1	1284.7 ± 5.3
383.15 K, 50000 kPa	832.5 ± 1.1	1330.3 ± 5.5
383.15 K, 60000 kPa	838.9 ± 1.2	1372.3 ± 5.6
383.15 K, 70000 kPa	845 ± 1.2	1412.6 ± 5.8
383.15 K, 80000 kPa	850.5 ± 1.2	1450.4 ± 5.9
383.15 K, 90000 kPa	855.9 ± 1.2	1486.9 ± 6.1
383.15 K, 100000 kPa	861 ± 1.2	1521.7 ± 6.2
393.15 K, 101.3 kPa	784.5 ± 1	–
393.15 K, 10000 kPa	794.6 ± 1.1	–
393.15 K, 20000 kPa	803.7 ± 1.1	–
393.15 K, 30000 kPa	812 ± 1.1	–
393.15 K, 40000 kPa	819.5 ± 1.1	–
393.15 K, 50000 kPa	826.4 ± 1.1	–
393.15 K, 60000 kPa	832.9 ± 1.2	–
393.15 K, 70000 kPa	839.8 ± 1.2	–
393.15 K, 80000 kPa	845.6 ± 1.2	–
393.15 K, 90000 kPa	851 ± 1.2	–
393.15 K, 100000 kPa	855.6 ± 1.2	–
403.15 K, 100 kPa	–	996.1 ± 4.2
403.15 K, 10000 kPa	–	1067.2 ± 4.5
403.15 K, 20000 kPa	–	1130.3 ± 4.7
403.15 K, 30000 kPa	–	1186.1 ± 4.9
403.15 K, 40000 kPa	–	1237.3 ± 5.1
403.15 K, 50000 kPa	–	1284.9 ± 5.3
403.15 K, 60000 kPa	–	1327.9 ± 5.5
403.15 K, 70000 kPa	–	1370 ± 5.6
403.15 K, 80000 kPa	–	1409.7 ± 5.8
403.15 K, 90000 kPa	–	1447.5 ± 5.9
403.15 K, 100000 kPa	–	1483.2 ± 6.1
